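Five concentrations, 48 hours, 96-well plates. The concentration for 50% growth inhibition is given as GI50.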 Active and inactive are the calls of the source. Cut-off read from the data, not from the text of the source: active = GI50 up to about 1.1 µM and inactive = higher.
Assays:
Test in all cases: DTP human tumour cell line panel, 48 h
[1] = test system: SK-MEL-2
[2] = test system: IGROV-1
[3] = test system: OVCAR-4
[4] = test system: UACC-257
[5] = test system: Hs-578T
[6] = test system: MOLT-4
[7] = test system: A498
[8] = test system: CCRF-CEM
[9] = test system: Malme-3M
[10] = test system: LOX IMVI
[11] = test system: SK-MEL-5
[12] = test system: UO-31
[13] = test system: EKVX
[14] = test system: MDA-MB-435
[15] = test system: RPMI-8226
[16] = test system: TK-10
[17] = test system: NCI-H226
[18] = test system: HCT-116
[19] = test system: M14
[20] = test system: HOP-62

Structure (SMILES)	GI50 [1]	GI50 [2]	GI50 [3]	GI50 [4]	GI50 [5]	GI50 [6]	GI50 [7]	GI50 [8]	GI50 [9]	GI50 [10]	GI50 [11]	GI50 [12]	GI50 [13]	GI50 [14]	GI50 [15]	GI50 [16]	GI50 [17]	GI50 [18]	GI50 [19]	GI50 [20]
CN(Cc1cnc2nc(N)nc(N)c2n1)c1ccc(C(=O)NC(CCC(=O)O)C(=O)O)cc1C(F)(F)F (stereo not drawn)	> 100 µM (inactive)	< 0.01 µM (active)	> 100 µM (inactive)	25.8 µM (inactive)	> 72.9 µM (inactive)	< 0.01 µM (active)	< 0.01 µM (active)	< 0.01 µM (active)	> 100 µM (inactive)	< 0.01 µM (active)	< 0.01 µM (active)	< 0.01 µM (active)	> 27 µM (inactive)	< 0.01 µM (active)	< 0.01 µM (active)	> 78.3 µM (inactive)	–	–	–	–
O=C(C[C@H](NC(=O)OCc1ccccc1)C(=O)NC1Cc2ccccc2OC1=O)OCc1ccccc1 (stereo partly drawn)	> 100 µM (inactive)	> 100 µM (inactive)	–	–	> 100 µM (inactive)	> 100 µM (inactive)	> 100 µM (inactive)	17.4 µM (inactive)	> 100 µM (inactive)	–	> 100 µM (inactive)	> 100 µM (inactive)	–	> 100 µM (inactive)	> 100 µM (inactive)	–	> 100 µM (inactive)	29.2 µM (inactive)	> 100 µM (inactive)	> 100 µM (inactive)
COC(=O)[C@H](Cc1ccccc1)NC(=O)c1ccc(CNC(=O)/C=C/c2cccc(Oc3ccccc3)c2)cc1	10.3 µM (inactive)	7.31 µM (inactive)	34.4 µM (inactive)	6.27 µM (inactive)	10.4 µM (inactive)	9.71 µM (inactive)	23.1 µM (inactive)	11 µM (inactive)	15.1 µM (inactive)	–	16.3 µM (inactive)	26.7 µM (inactive)	30.8 µM (inactive)	5.35 µM (inactive)	28.3 µM (inactive)	24.8 µM (inactive)	52.7 µM (inactive)	37 µM (inactive)	11.9 µM (inactive)	77.3 µM (inactive)
CCOC(=O)NC(C(F)(F)F)(C(F)(F)F)P(=O)(OCC(C)C)OCC(C)C	14.9 µM (inactive)	10.2 µM (inactive)	–	–	14.9 µM (inactive)	–	41.9 µM (inactive)	2.67 µM (inactive)	16.2 µM (inactive)	4.49 µM (inactive)	12.1 µM (inactive)	7.35 µM (inactive)	21.6 µM (inactive)	15.5 µM (inactive)	14.4 µM (inactive)	11.9 µM (inactive)	13.9 µM (inactive)	2.55 µM (inactive)	11.6 µM (inactive)	30 µM (inactive)
COC(=O)NC(Nc1ccccn1)(C(F)(F)F)C(F)(F)F	> 100 µM (inactive)	> 100 µM (inactive)	–	> 100 µM (inactive)	> 100 µM (inactive)	> 100 µM (inactive)	> 100 µM (inactive)	> 100 µM (inactive)	> 100 µM (inactive)	> 100 µM (inactive)	> 100 µM (inactive)	> 100 µM (inactive)	> 100 µM (inactive)	> 100 µM (inactive)	> 100 µM (inactive)	> 100 µM (inactive)	> 100 µM (inactive)	> 100 µM (inactive)	> 100 µM (inactive)	> 100 µM (inactive)
CC1Cc2c(cc(N)nc2Br)NC1=O (stereo not drawn)	> 100 µM (inactive)	> 100 µM (inactive)	> 100 µM (inactive)	> 100 µM (inactive)	> 100 µM (inactive)	43.1 µM (inactive)	–	> 100 µM (inactive)	> 100 µM (inactive)	> 100 µM (inactive)	85.1 µM (inactive)	> 100 µM (inactive)	11 µM (inactive)	62.4 µM (inactive)	> 100 µM (inactive)	> 100 µM (inactive)	> 100 µM (inactive)	64.6 µM (inactive)	> 100 µM (inactive)	> 100 µM (inactive)
COc1cc([C@@H]2c3cc(O)c(OC)cc3C=C(C(N)=O)[C@H]2C(N)=O)ccc1O	–	> 100 µM (inactive)	–	> 100 µM (inactive)	> 100 µM (inactive)	> 100 µM (inactive)	> 100 µM (inactive)	> 100 µM (inactive)	> 100 µM (inactive)	> 100 µM (inactive)	> 100 µM (inactive)	> 100 µM (inactive)	> 100 µM (inactive)	> 100 µM (inactive)	> 100 µM (inactive)	–	> 100 µM (inactive)	> 100 µM (inactive)	> 100 µM (inactive)	> 100 µM (inactive)
COC(=O)CC[N+]1=CCC(c2ccccc2)(c2ccccc2)O1	> 100 µM (inactive)	> 100 µM (inactive)	> 100 µM (inactive)	> 100 µM (inactive)	> 100 µM (inactive)	> 100 µM (inactive)	> 100 µM (inactive)	–	–	–	> 100 µM (inactive)	> 100 µM (inactive)	> 100 µM (inactive)	41.8 µM (inactive)	–	> 100 µM (inactive)	> 100 µM (inactive)	> 100 µM (inactive)	> 100 µM (inactive)	> 100 µM (inactive)
